Type in all cases: physicochemical
Series [1] is described as follows: Micronization of NACA and stability of the 1% NACA formulation. The source says: The relation between micronization conditions and an initial increase of the degradation product diNACA was further investigated. […] Therefore, the zirconium oxide milling process was further investigated and successfully optimized regarding particle size distribution, milling parameters and impurity profile for the 1% NACA formulation. […] The particle size distribution by laser diffraction analysis was ×10=1.3 μm, ×50=4.7 μm and ×90=12.3 μm. Batches were prepared and found to be stable for up to 4 weeks at ambient temperature.

A short description of series [2]: Oxidation of NACA on exposure to air. As to conditions: exposed to air. The source says: These efforts to increase purity focused on the major impurities as measured by HPLC, namely, diNACA, DTT and cyclic DTT. […] Ethanol and methyl t-butyl Ether (MTBE) used in the reduction and solvent-exchange were degassed in an effort to reduce diNACA.
The nature of series [3]: Solubilization of NACA in ORA-SWEET and water. The protocol: A study was conducted to determine the solubilization of NACA in ORA-SWEET® (Ora-Sweet is a commercially available syrup vehicle containing water, sucrose, glycerin, sorbitol, flavoring, buffering agents (citric acid and/or sodium phosphate), methyl paraben and potassium sorbate, pH 4.2 manufactured by Paddock Laboratories, Inc., Minneapolis, Minnesota). HPLC equipment and glass containers and stirrers were utilized.
Therefore, NACA was dissolved in 50 mL water followed by 50 mL Ora-Sweet, shaken to dissolve in an opaque plastic bottle with closure and provided to subject for self-administration (oral ingestion).

A short description of series [4]: Stability of NACA/excipient mixtures (excipient screening). As to conditions: NACA/excipient mixtures after 4 weeks at 40° C./75% RH. The procedure:
NACA Tablets, 250 mg, are packaged in high density polyethylene (HDPE) bottles with foil induction seal and a white polyproplyene screw-top closure. Excipients used for the formulation meet compendial standards. Lactose functions as a filler. Microcrystalline cellulose functions as a filler. Croscarmellose Sodium functions as a disintegrant. Stearic Acid functions as a lubricant. Excipients were screened by assessing the stability of NACA in mixtures with each excipient.

Series [5] is described as follows: Stability and dissociation of NACA/urea co-crystal (secondary co-crystal screen). The protocol:
NACA/Urea Co-crystal. A primary co-crystal screen was conducted where 28 potential co-crystal formers (CCFs) were screened (Table 18) in 6 solvent systems under 2 process relevant crystallization conditions, namely, thermal maturation and evaporation. A NACA/urea co-crystal was identified (FIG. 15). […] NMR analysis confirmed an approximate stoichiometric content of urea contained within the material. The material appeared to be stable under ambient conditions and elevated temperature (80° C.) but unstable when stored at high humidity for prolonged periods, showing degradation to the diNACA. […] An additional DSC experiment with post-XRPD analysis confirmed that the exothermic event observed during the DSC cooling cycle is a recrystallization to NACA.

For `CC(=O)N[C@@H](CS)C(N)=O`, the “Change of degradation product diNACA on micronization” value is recorded as “time dependent increase of the degradation product diNACA” in series [1] (stainless steel grinding jars); “did not lead to an initial increase of the degradation product diNACA” in series [1] (zirconium oxide jars and balls). For the same molecule, the “Oxidation on exposure to air” value in series [2] is “Oxidation of NACA occurs”. Moreover, the “Stirring time required to achieve a solution” value in series [3] (NACA at 80 mg/ml in ORA-SWEET) was in the range of 20 to 30 min. In addition, the Dissolution in water entry in series [3] (water, shaking for 30 seconds) was “readily dissolved”.
As for `CC(=O)N[C@H](CS)C(N)=O`, the “% Assay” value in series [4] worked out at 95.3%.
In the case of `CC(=O)N[C@@H](CS)C(N)=O.NC(N)=O` [NACA/urea pattern 1 material], the “Stability under ambient conditions and elevated temperature” value in series [5] (ambient conditions and 80° C.) is given as “stable”. The “Dissociation in water and high water activity mixtures” value in series [5] (deionized water and solvent/water mixtures with a high water activity) was “found to dissociate”. Further, the “Dissociation in organic solvents and low water activity mixtures” value in series [5] (organic solvents and solvent/water mixtures with low water activity) is recorded as “No signs of dissociation”. For the same molecule, the “Stability at high humidity” value in series [5] (stored at high humidity for prolonged periods, degradation to diNACA) is reported as “unstable”.
